Structures can show the parent of a compound that is named as a salt. Where two headings read alike, the source gives them in different places.
What was measured:
Format in all cases: biochemical
recombinant human VAP-1 = target: T1, recombinant human VAP-1 (Homo sapiens, UniProt Q16853); assay: Activity on recombinant human VAP-1, Amplex Red HRP-coupled hydrogen peroxide assay, benzylamine substrate; conditions: recombinant human VAP-1, benzylamine substrate; read-out: Inhibitory Activity (IC50, nM) human VAP-1
T1 construct: purchased R&D systems
T1 sequence (Q16853 1-763): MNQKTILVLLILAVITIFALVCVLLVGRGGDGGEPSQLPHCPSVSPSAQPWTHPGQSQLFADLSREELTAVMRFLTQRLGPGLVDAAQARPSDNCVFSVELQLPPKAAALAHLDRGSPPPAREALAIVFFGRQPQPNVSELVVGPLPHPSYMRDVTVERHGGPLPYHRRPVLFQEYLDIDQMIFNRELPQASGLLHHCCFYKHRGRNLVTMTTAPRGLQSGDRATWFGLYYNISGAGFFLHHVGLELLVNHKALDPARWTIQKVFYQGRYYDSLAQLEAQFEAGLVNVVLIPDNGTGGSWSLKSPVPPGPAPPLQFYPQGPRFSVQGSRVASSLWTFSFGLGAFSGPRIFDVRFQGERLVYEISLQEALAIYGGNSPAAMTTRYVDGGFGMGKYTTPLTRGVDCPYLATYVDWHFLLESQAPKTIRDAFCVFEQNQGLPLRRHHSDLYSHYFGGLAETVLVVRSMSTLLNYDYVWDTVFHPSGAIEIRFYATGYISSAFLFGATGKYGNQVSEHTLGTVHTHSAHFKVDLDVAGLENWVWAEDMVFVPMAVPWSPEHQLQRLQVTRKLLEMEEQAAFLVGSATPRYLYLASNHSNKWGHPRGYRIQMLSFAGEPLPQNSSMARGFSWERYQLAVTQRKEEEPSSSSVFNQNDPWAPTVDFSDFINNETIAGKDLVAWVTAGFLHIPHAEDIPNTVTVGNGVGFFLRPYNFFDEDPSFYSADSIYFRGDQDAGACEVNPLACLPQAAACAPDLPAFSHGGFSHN
Method in brief: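 Compounds were preincubated with purified enzyme in 50 mM sodium phosphate pH 7.4 at 37 °C for 30 min, then 200 uM Amplex Red, 1 mM benzylamine and 1 U/mL HRP were added. Resorufin fluorescence (ex 544/em 590 nm) was followed over 1-2 h; IC50 came from 4-parameter fits of signal-rate inhibition.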

[1] = target: T2, recombinant human MAO-A (monoamine oxidase-A) (Homo sapiens, UniProt P21397); assay: Activity on recombinant human MAO-A, Amplex Red method, 0.5 mM tyramine substrate; conditions: 0.5 mM tyramine substrate, read-out: Inhibitory Activity (IC50, nM) MAO-A
T2 construct: purchased Sigma-Aldrich
T2 sequence (P21397 1-527): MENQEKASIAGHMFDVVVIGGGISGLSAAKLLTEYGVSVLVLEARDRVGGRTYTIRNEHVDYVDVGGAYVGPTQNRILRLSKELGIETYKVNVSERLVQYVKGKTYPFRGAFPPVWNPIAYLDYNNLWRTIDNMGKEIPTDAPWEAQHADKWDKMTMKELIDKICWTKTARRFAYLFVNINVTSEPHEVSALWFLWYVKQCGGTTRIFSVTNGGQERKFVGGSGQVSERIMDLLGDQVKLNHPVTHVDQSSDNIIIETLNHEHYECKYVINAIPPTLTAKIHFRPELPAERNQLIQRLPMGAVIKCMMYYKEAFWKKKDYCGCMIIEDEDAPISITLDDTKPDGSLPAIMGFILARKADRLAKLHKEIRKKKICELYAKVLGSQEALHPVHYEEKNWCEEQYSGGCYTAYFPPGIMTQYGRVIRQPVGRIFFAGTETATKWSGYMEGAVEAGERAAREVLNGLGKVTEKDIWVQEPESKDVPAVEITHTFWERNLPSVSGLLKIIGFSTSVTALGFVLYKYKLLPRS
Method in brief: (§1)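 8-point, 1:3 dose-response, four-parameter logistic IC50 from reduction in fluorescence rate versus DMSO control. HRP/Amplex Red detection of H2O2 (ex 544, em 590 nm) after 30 min, 37 °C compound–enzyme preincubation in pH 7.4 phosphate buffer. MAO-A substrate: 0.5 mM tyramine; MAO-B: 1 mM benzylamine.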

[2] = target: T3, recombinant human MAO-B (monoamine oxidase-B) (Homo sapiens, UniProt P27338); assay: Activity on recombinant human MAO-B, Amplex Red method, 1 mM benzylamine substrate; conditions: 1 mM benzylamine substrate, read-out: Inhibitory Activity (IC50, nM) MAO-B
T3 construct: purchased Sigma-Aldrich
T3 sequence (P27338 1-520): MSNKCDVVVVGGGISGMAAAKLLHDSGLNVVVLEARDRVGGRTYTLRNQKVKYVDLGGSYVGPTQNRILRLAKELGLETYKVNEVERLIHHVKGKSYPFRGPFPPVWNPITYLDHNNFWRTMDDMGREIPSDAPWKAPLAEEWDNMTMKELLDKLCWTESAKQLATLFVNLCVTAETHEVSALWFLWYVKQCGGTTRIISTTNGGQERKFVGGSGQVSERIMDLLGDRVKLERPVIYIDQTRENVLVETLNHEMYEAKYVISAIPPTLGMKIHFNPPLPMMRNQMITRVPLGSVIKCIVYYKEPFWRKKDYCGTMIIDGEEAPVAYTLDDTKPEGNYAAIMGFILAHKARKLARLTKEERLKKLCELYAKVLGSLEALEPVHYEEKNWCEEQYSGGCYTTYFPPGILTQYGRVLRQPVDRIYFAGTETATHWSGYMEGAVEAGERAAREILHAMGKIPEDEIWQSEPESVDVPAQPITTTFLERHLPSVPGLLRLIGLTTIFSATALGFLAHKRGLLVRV
Method in brief: as §1

[3] = target: T4, recombinant human DAO (diamine oxidase) (Homo sapiens, UniProt P19801); assay: Activity on recombinant human DAO, Amplex Red method, 1 mM putrescine substrate; conditions: recombinant human DAO, 1 mM putrescine substrate, read-out: Inhibitory Activity (IC50, nM) DAO
T4 construct: purchased R&D systems
T4 sequence (P19801 20-751): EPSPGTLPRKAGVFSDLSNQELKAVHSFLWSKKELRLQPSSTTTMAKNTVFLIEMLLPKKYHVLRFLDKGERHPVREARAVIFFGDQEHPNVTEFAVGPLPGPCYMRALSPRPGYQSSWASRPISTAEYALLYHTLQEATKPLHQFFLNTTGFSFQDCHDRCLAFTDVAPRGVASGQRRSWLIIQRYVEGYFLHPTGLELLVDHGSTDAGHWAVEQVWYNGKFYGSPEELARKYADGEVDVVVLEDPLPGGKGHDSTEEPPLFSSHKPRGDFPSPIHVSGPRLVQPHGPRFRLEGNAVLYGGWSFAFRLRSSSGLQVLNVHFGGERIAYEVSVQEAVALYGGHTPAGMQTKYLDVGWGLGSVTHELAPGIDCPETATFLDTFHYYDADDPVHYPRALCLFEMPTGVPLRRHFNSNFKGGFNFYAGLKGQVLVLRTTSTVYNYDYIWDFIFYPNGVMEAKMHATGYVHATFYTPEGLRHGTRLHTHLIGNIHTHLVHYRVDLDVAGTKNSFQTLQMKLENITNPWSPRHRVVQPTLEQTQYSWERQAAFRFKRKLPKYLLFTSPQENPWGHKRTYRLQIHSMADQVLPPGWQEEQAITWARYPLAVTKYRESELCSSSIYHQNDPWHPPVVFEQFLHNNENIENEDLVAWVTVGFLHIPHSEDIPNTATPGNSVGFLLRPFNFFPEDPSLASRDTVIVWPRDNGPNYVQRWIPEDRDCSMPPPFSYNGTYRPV
Method in brief: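 Inhibition of recombinant human DAO (diamine oxidase, R&D systems) was assessed with the Amplex Red Hydrogen Peroxide Assay Kit. Hydrogen peroxide produced from 1 mM putrescine was detected through an HRP-coupled reaction that converts Amplex Red into fluorescent resorufin, read at 544 nm excitation and 590 nm emission. IC50 values came from four-parameter logistic fits in GraphPad Prism.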

Row | SMILES | IC50 (recombinant human VAP-1) [nM] | IC50 [1] [nM] | IC50 [2] [nM] | IC50 ([3]; bound qualified by footnote * / **) [nM] | IC50 [3] [nM]
1 | NC/C(=C\F)Cn1ncn(-c2cc(-c3ccc4c(c3)OCO4)ccn2)c1=O [Example 170, 2-[(2E)-2-(aminomethyl)-3-fluoroprop-2-en-1-yl]-4-[4-(1,3-benzodioxol-5-yl)pyridin-2-yl]-2,4-dihydro-3H-1,2,4-triazol-3-one] | 0.74 | > 100000 | 235 | < 100 | –
2 | NC/C(=C\F)Cn1ncn(-c2cc(-c3ccc4sc(N)nc4c3)ccn2)c1=O [Example 173, 4-[4-(2-amino-1,3-benzothiazol-5-yl)pyridin-2-yl]-2-[(2E)-2-(aminomethyl)-3-fluoroprop-2-en-1-yl]-2,4-dihydro-3H-1,2,4-triazol-3-one] | 0.41 | > 100000 | > 10000 | – | 5.9
3 | CC(=O)Nc1ccc(-c2cccc(-n3cnn(C/C(=C/F)CN)c3=O)n2)cc1 [Example 175, N-[4-(6-{1-[(2E)-2-(aminomethyl)-3-fluoroprop-2-en-1-yl]-5-oxo-1,5-dihydro-4H-1,2,4-triazol-4-yl}pyridin-2-yl)phenyl]acetamide] | 0.44 | 1470 | > 10000 | – | < 30
4 | NC/C(=C\F)Cn1ncn(-c2cccc(-c3ccc(-c4noc(C5CC5)n4)cc3)n2)c1=O [Example 178, 2-[(2E)-2-(aminomethyl)-3-fluoroprop-2-en-1-yl]-4-{6-[4-(5-cyclopropyl-1,2,4-oxadiazol-3-yl)phenyl]pyridin-2-yl}-2,4-dihydro-3H-1,2,4-triazol-3-one hydrochloride] | 1.4 | 74000 | 5490 | – | < 10
5 | NC/C(=C\F)Cn1ncn(-c2cccc(-c3cccc(-c4noc(C5CC5)n4)c3)n2)c1=O [Example 179, 2-[(2E)-2-(aminomethyl)-3-fluoroprop-2-en-1-yl]-4-{6-[3-(5-cyclopropyl-1,2,4-oxadiazol-3-yl)phenyl]pyridin-2-yl}-2,4-dihydro-3H-1,2,4-triazol-3-one hydrochloride] | 1.1 | 270000 | 390 | – | 3.1

Continued by falling IC50 (recombinant human VAP-1), values first:

Row | IC50 (recombinant human VAP-1) [nM] | IC50 [1] [nM] | IC50 [2] [nM] | IC50 ([3]; bound qualified by footnote * / **) [nM] | IC50 [3] [nM] | SMILES
6 | 2.8 | 120000 | 180 | – | 1.4 | CC(C)c1nc(-c2ccc(-c3cccc(-n4cnn(C/C(=C/F)CN)c4=O)n3)cc2)no1 [Example 180, 2-[(2E)-2-(aminomethyl)-3-fluoroprop-2-en-1-yl]-4-(6-{4-[5-(propan-2-yl)-1,2,4-oxadiazol-3-yl]phenyl}pyridin-2-yl)-2,4-dihydro-3H-1,2,4-triazol-3-one]
7 | 2.2 | > 100000 | 710 | – | 1100 | CN(C)c1cccc(-c2cccc(-n3cnn(C/C(=C/F)CN)c3=O)n2)c1 [Example 174, 2-[(2E)-2-(aminomethyl)-3-fluoroprop-2-en-1-yl]-4-{6-[3-(dimethylamino)phenyl]pyridin-2-yl}-2,4-dihydro-3H-1,2,4-triazol-3-one hydrochloride]
8 | 1.9 | > 100000 | 880 | – | 2.1 | CC(C)c1nc(-c2cccc(-c3cccc(-n4cnn(C/C(=C/F)CN)c4=O)n3)c2)no1 [Example 181, 2-[(2E)-2-(aminomethyl)-3-fluoroprop-2-en-1-yl]-4-(6-{3-[5-(propan-2-yl)-1,2,4-oxadiazol-3-yl]phenyl}pyridin-2-yl)-2,4-dihydro-3H-1,2,4-triazol-3-one]
9 | 0.84 | > 100000 | 1540 | – | < 30 | NC/C(=C\F)Cn1ncn(-c2cc(-c3ccc4c(c3)OCCO4)ccn2)c1=O [Example 171, 2-[(2E)-2-(aminomethyl)-3-fluoroprop-2-en-1-yl]-4-[4-(2,3-dihydro-1,4-benzodioxin-6-yl)pyridin-2-yl]-2,4-dihydro-3H-1,2,4-triazol-3-one]
10 | 0.83 | 7900 | 3320 | – | < 30 | NC/C(=C\F)Cn1ncn(-c2cccc(-c3ccc(-c4ccon4)cc3)n2)c1=O [Example 176, 2-[(2E)-2-(aminomethyl)-3-fluoroprop-2-en-1-yl]-4-{6-[4-(1,2-oxazol-3-yl)phenyl]pyridin-2-yl}-2,4-dihydro-3H-1,2,4-triazol-3-one]
11 | 0.67 | > 100000 | 9070 | – | < 30 | NC/C(=C\F)Cn1ncn(-c2cc(-c3ccc4nonc4c3)ccn2)c1=O [Example 172, 2-[(2E)-2-(aminomethyl)-3-fluoroprop-2-en-1-yl]-4-[4-(2,1,3-benzooxadiazol-5-yl)pyridin-2-yl]-2,4-dihydro-3H-1,2,4-triazol-3-one]
12 | 0.5 | > 100000 | 1900 | – | 2.6 | NC/C(=C\F)Cn1ncn(-c2cccc(-c3ccc(-c4cnon4)cc3)n2)c1=O [Example 177, 2-[(2E)-2-(aminomethyl)-3-fluoroprop-2-en-1-yl]-4-{6-[4-(1,2,5-oxadiazol-3-yl)phenyl]pyridin-2-yl}-2,4-dihydro-3H-1,2,4-triazol-3-one hydrochloride]

Reference: patent US11492335B2, “Aryl or heteroaryl triazolone derivatives or salts thereof, or pharmaceutical compositions comprising the same” (YUHAN CORPORATION, priority 2018, dated 2022)
